# Assay results taken from patent publication US8961986B2, “Peptide composition” (Apitope Technology (Bristol) Limited, priority 2000, dated 2015).
# Entries after “also recorded” stand apart in the source; their conditions may differ.
# What was measured:
# [1] = test system: MHC class I or II molecule; conditions: cited from earlier work
# [2] = test system: fixed Mgar (HLA-DR2+ve) APC presenting to T cells from DR2:MBP 82-100 transgenic mouse; experiment: Antigen-presentation assay using an APIPS (fixed APC) with T cells from DR2:MBP82-100 transgenic mouse; assay type: cell-based; conditions: live or p-formaldehyde-fixed Mgar cells, 72 h
# Protocol: Presentation of peptides to T cells isolated from DR2:MBP82-100 transgenic mouse was essentially as described above except APC were plated at 5×10^5 cells per well, T cells were plated at 1×10^5 cells per well, and incubation was allowed to proceed for 72 h prior to the addition of [^3H]-thymidine.
# (§1) For any given epitope, there may exist one or more apitopes, capable of being presented to APC without further processing. The presence of apitopes within two regions of MBP is investigated by incubating live or p-formaldehyde-fixed Mgar (HLA-DR2+ve) cells are incubated with overlapping peptides in serum from MBP regions 77-100 (FIG. 12) and 125-148 (FIG. 13) or in serum alone. T cells were added and after 72 h (FIG. 12) or after 48 h (FIG. 13) the T cell proliferative response was measured by ^3H-thymidine uptake. For MBP 77-100, the T cells are isolated from a DR2:MBP 82-100 transgenic mouse, whereas for MBP 130-144 the T cell clone MS17:A3 is used.
# [3] = test system: fixed Mgar (HLA-DR2+ve) APC presenting to T cell clones; experiment: Antigen-presentation assay using an APIPS (fixed APC) with human T cell clones; assay type: cell-based; conditions: for presentation by fixed APC without further processing (apitope): fixed vs live APC, T cell clone proliferation; for apitope within MBP region 125-148: live or p-formaldehyde-fixed Mgar cells, T cell clone MS17:A3, 48 h
# Protocol: Presentation of the peptides to T cell clones is measured by proliferation. APC are fixed in 0.5% paraformaldehyde and plated at 1×10^5 cells per well of a 96-well tissue culture plate. T cells clones are plated at 2×10^4 cells per well in the presence of varying concentrations of peptide. After incubation for 48 h at 37° C., proliferation is measured by [^3H] thymidine incorporation over 16-20 h. Results are compared with the ability of T cells to respond to the epitope presented by live APC.
# In order to investigate whether various MBP peptides are apitopes, their capacity to be presented to T-cells by fixed APC is investigated. Live or […] Mgar (HLA-DR2+ve) cells are pre-pulsed with the peptide in serum, or serum alone for 3.5 hours. Excess peptide is then removed from cells and the appropriate T cell clone added. The T cell proliferative response is measured by ^3H-thymidine uptake.
# as §1
# [4] = test system: draining lymph node cells; experiment: Tolerance experiments with 89-101 and 87-96: lymph node cell recall proliferation; assay type: in vivo, Mice
# Protocol: In order to test this possibility tolerance experiments are performed with the 89-101 and 87-96 peptides (FIGS. 15a and b).
# Mice received 200 μg of peptide in PBS or PBS alone intraperitoneally on days −8, −6 and −4 prior to 100 μg of peptide in complete Freunds adjuvant on day 0. After 10 days, draining lymph node cells (6×10^5 per well) were cultured in X-Vivo 15 medium supplemented with 5×10^−5M 2-mercaptoethanol and […] L-glutamine with or without antigen for 72 hours. Cultures were pulsed for the final 16 hours with 0.5 μCi ^3H.thymidine and incorporation measured using a liquid scintillation counter. Results are expressed as means counts per minute for triplicate cultures.
# [5] = test system: MBP-specific T cell clones; experiment: T cell clone (TCC) proliferation assay, fine mapping of MBP epitopes; assay type: cell-based, human; conditions: TCC from MS patients and healthy individuals; proliferative response
# Protocol: MBP-specific T cell lines (TCL) are generated from 8 MS patients and 2 healthy control donors. PBMC from each subject are separated as described above and plated out at 1×10^6 cells/ml in 6-well plates in the presence of MBP (50 μg/ml); a portion of PBMC from each subject is regularly frozen and stored for subsequent restimulations. Seven days later the cells are fed with fresh medium containing 2% IL-2 (Lymphocult-HT; Biotest LTD., Birmingham, UK), and on day 12 of culture all cells are restimulated with antigen, IL-2 and irradiated (2500 Rad) autologous PBMC as a source of antigen presenting cells (APC), at a cell ratio of 1T cell:5 APC. Cells are expanded in IL-2 every 3-4 days, and on day 14 are restimulated with antigen, IL-2 and PBMC, as described above. On the day of the first restimulation cells are examined for specific proliferation to MBP. Briefly, 2×10^4 T cells and 1×10^5 irradiated autologous PBMC are cultured in triplicate, in 96-well round-bottom plates, in the presence of MBP. Cells are cultured for 2 days and pulsed with (^3H)-Thymidine at 0.4 μCi/well during the last 18 hours of the culture. Cells are then harvested as described above, and a TCL is considered to be MBP-specific with a δcpm>1000 and a SI>3.
# Following 3 restimulation/expansion cycles TCL are cloned using PHA (Sigma, Poole, Dorset, UK)) in the presence of autologous irradiated PBMC as APC. T cells are plated under limiting dilution conditions at 0.1 cell/well, 0.3 cell/well and 1 cell/well and cultured in Terasaki plates (Nunc International, Costar) with 1×10^4 irradiated PBMC, 5 μg/ml PHA, and 2% IL-2. After 10-12 days, growth-positive wells are expanded onto 96-well round-bottom plates, using 1×10^5 irradiated PBMC, 5 μg/ml PHA and IL-2. Three days later wells are fed with fresh medium containing IL-2, and on day 7 the clones are expanded onto 48-well plates using 5×10^5 irradiated PBMC, PHA and IL-2; at this point clones are tested in proliferation assays for specific responses to MBP. MBP-specific clones are expanded a week later onto 24-well plates, using 1×10^6 irradiated PBMC with PHA or Dynabeads (Dynal, UK) and IL-2. The clones are maintained in 24-well plates using a 7-10 day restimulation/expansion cycle, essentially as described above. The ability of T cell clones (TCC) to recognize the panel of MBP peptides is tested by proliferation assays, as described above.
# TCC are generated from 8 MS patients and 2 healthy individuals, and used to clarify the fine specificity of the peptide regions identified in the kinetic response assay. The specificity of each TCC is tested by its proliferative response to the panel of 15-mer peptides. Clone SD:A7 recognised region 1-24, and within this region this TCC responded to a.a. 5-19. Region 30-54 is recognised by 4 clones (MS49:D3, MS49:C8, MS49:A8, MS49:B6) and the epitope within this region is 30-44. […] Five clones (MS43:A7, MS41:B6, MS41:A2, MS41:C6, N5:8) recognize a.a. 83-99 which is contained in region 75-99. One patient produced TCC specific for a.a. 110-124 (MS60:A2, MS60:B3), contained within the 105-129 pool, and another TCC from the same patient is specific to 130-144 (MS60:E1), found within the 120-144 region. Five individuals produce clones which recognize epitopes within the region 135-159: MS60:F7, MS60:D1, MS59:F1 and N5:19 recognizes a.a. 140-154; MS57:A1 is specific to 140-149, and TCC MS17:A3 responds to sequence 130-144. […] Lastly, region 150-170 is recognized by 2 clones specific to a.a. 156-169.
# HLA-DQ6 = experiment: Antigen presentation assay, HLA-DQ6 transfected L-cells; assay type: cell-based, human
# From the text: MBP peptides 30-44, 130-144 and 139-153 were synthesized using L-amino acids and standard F-moc chemistry on an Abimed AMS 422 multiple peptide synthesiser.
# L-cells transfected with either HLA-DQ6, HLA-DR2a or HLA-DR2b, or Mgar cells (EACC, Porton Down, UK) which express HLA-DQ, DP and DR were used as APCs.
# T-cell clones MS 49:D3 and MS17:A2 were generated from MS patients and clone N5:19 was generated from a normal individual. All three clones were DR2 positive.
# Antigen presenting cells were incubated with the various concentrations of peptide and the appropriate T-cells. Proliferation, and therefore activation, of the T-cells was measured by [^3H]-Thymidine incorporation, and expressed as the stimulation index (SI=corrected counts per minute (ccpm) culture containing peptide/ccpm culture without peptide).
substance,measurement,setting,value
"MBP 134-148: MBP peptide identified as apitope in WO 03/064464 (MASQKRPSQRHGSKY; UniProt P02686 134-148, looked up, fragment)",identified as apitope in WO 03/064464,[1],apitopes
TQDENPVVHFFKNIV [MBP 80-94],apitope within MBP region 77-100,[2],shown to act as apitopes
same,presentation by fixed APC without further processing (apitope),[3],found to be apitopes
"MBP 138-152: MBP peptide identified as apitope in WO 03/064464 (KRPSQRHGSKYLATA; UniProt P02686 138-152, looked up, fragment)",identified as apitope in WO 03/064464,[1],apitopes
"MBP 87-96: MBP 10-mer peptide 87-96, contains the epitope 89-94 (SRPHLIRLFS; UniProt P02686 87-96, looked up, fragment)",effect of peptide as tolerogen on recall responses after priming with 87-96,"[4]; 200 μg i.p. days -8, -6, -4, priming 87-96 in CFA day 0, lymph node cells day 10",suppressed recall responses to both 87-96 and 89-101
same,in vitro recall response after priming with 87-96,"[4]; PBS pre-treated mice, lymph node cells",strong recall response
ENPVVHFFKNIVTPR [MBP 83-97],apitope within MBP region 77-100,[2],shown to act as apitopes
"MBP 135-149: MBP peptide identified as apitope in WO 03/064464 (ASQKRPSQRHGSKYL; UniProt P02686 135-149, looked up, fragment)",identified as apitope in WO 03/064464,[1],apitopes
"MBP 156-169: MBP a.a. 156-169 recognised by 2 clones; possibly the same as 156-170 (DHARHGFLPRHRDT; UniProt P02686 156-169, looked up, fragment)",T cell clones (TCC) recognising the peptide,[5],2
RASDYKSAHKGFKGV [MBP 130-144],T cell clones (TCC) recognising the peptide,[5],responds
same,presentation by fixed APC without further processing (apitope),[3],shown to act as apitopes; also recorded: found to be apitopes; also recorded: can be presented by fixed APC without further processing
"MBP 140-149: MBP 10-mer peptide 140-149 (PSQRHGSKYL; UniProt P02686 140-149, looked up, fragment)",T cell clones (TCC) recognising the peptide,[5],specific
QDENPVVHFFKNIVT [MBP 81-95],apitope within MBP region 77-100,[2],shown to act as apitopes
"MBP 60-74: MBP 15-mer peptide 60-74 (QDTAVTDSKRTADPK; UniProt P02686 60-74, looked up, fragment)",T cell clones (TCC) recognising the peptide,[5],One
MPVVHFFKNIVTPRT [MBP 84-98],apitope within MBP region 77-100,[2],shown to act as apitopes
H-Ala-Ser-Asp-Tyr-Lys-Ser-Ala-His-Lys-Gly-Phe-Lys-Gly-Val-Asp-NH2 (H-ASDYKSAHKGFKGVD-NH2) [MBP 131-145],apitope within MBP region 125-148,[3],shown to act as apitopes
same,HLA-DQ6 binding,HLA-DQ6,HLA-DQ6 binding
DYKSAHKGFKGVDAQ [MBP 133-147],apitope within MBP region 125-148,[3],shown to act as apitopes
"MBP 136-150: MBP peptide identified as apitope in WO 03/064464 (SQKRPSQRHGSKYLA; UniProt P02686 136-150, looked up, fragment)",identified as apitope in WO 03/064464,[1],apitopes
H-Pro-Arg-His-Arg-Asp-Thr-Gly-Ile-Leu-Asp-Ser-Ile-Gly-Arg-Phe-NH2 (H-PRHRDTGILDSIGRF-NH2) [MBP 30-44],T cell clones (TCC) recognising the peptide,[5],4
same,presentation by fixed APC without further processing (apitope),[3],shown to act as apitopes; also recorded: found to be apitopes; also recorded: can be presented by fixed APC without further processing
same,HLA-DQ6 binding,HLA-DQ6,HLA-DQ6 binding
same,proliferative response versus Mgar control cells,"HLA-DQ6; T-cell clone MS 49:D3, highest peptide concentration",1.5 fold
"MBP 110-124: myelin basic protein peptide, residues 110-124 (RPSESDELQTIQEDS)",T cell clones (TCC) recognising the peptide,[5],TCC specific
same,presentation by fixed APC without further processing (apitope),[3],shown to act as apitopes; also recorded: found to be apitopes; also recorded: can be presented by fixed APC without further processing
"MBP 137-151: MBP peptide identified as apitope in WO 03/064464 (QKRPSQRHGSKYLAT; UniProt P02686 137-151, looked up, fragment)",identified as apitope in WO 03/064464,[1],apitopes
"MBP 156-170: myelin basic protein peptide, residues 156-170; epitope but not apitope (DHARHGFLPRHRDTG)",presentation by fixed APC without further processing (apitope),[3],an epitope but not an apitope; also recorded: requires further processing for presentation to T cells
"MBP 5-19: MBP 15-mer peptide a.a. 5-19 (AGKRELNAEKASTNS; UniProt P02686 5-19, looked up, fragment)",T cell clones (TCC) recognising the peptide,[5],responded
SDYKSAHKGFKGVDA [MBP 132-146],apitope within MBP region 125-148,[3],shown to act as apitopes
DENPVVHFFKNIVTP [MBP 82-96],apitope within MBP region 77-100,[2],shown to act as apitopes
